Data from patent publication US20240059652A1, “AMORPHOUS MELANOCORTIN RECEPTOR AGONIST AND METHOD FOR PREPARING SAME” (LG CHEM, LTD., priority 2020, published 2024).

Assays:
Assay type in all cases: physicochemical
[1] = vapour stress experiment (stability of the amorphous compound under solvent vapours, XRD pattern analysed); conditions: 5-7 days; for Result / XRD: vapour stress
Method: (§1) The following experiments were performed to evaluate the stability of the amorphous compound under various solvent vapours and controlled humidity conditions.
A vapour stress experiment was performed by placing about 25 mg of the amorphous compound of Example 1 into an unsealed vial, placing the vial in a large sealed container containing 1 mL of the selected solvent, and after 5-7 days, analyzing the XRD pattern of the sample.
(§2) The vapour stress and humidity stress experimental methods are methods used as methods for generating stable solvates or hydrates because, when a substance is exposed to vapours, a solid is plasticized, and molecular mobility is […]. However, for the amorphous compound of Example 1, the amorphous compound was maintained under various conditions according to the above experimental methods. Thus, it was confirmed that the amorphous compound was stable under the corresponding conditions.

[2] = humidity stress experiment (stability of the amorphous compound in relative humidity chambers, XRD pattern analysed); conditions: 5-7 days
Method: as §1
In addition, a humidity stress experiment was performed by placing about 25 mg of the amorphous compound of Example 1 in individual vials, storing the vials in an unsealed state in various relative humidity chambers (23% RH, 59% RH, 7% RH, 98% RH, 40° C./75% RH) for 5-7 days, and analyzing the XRD pattern.
as §2

[3] = as above; conditions: 75% RH stress, 5-7 days

CC(C)C(=O)N([C@H]1C[C@@H](C(=O)N2CCOCC2)N(C(=O)[C@@H]2CN(C(C)(C)C)C[C@H]2c2ccc(Cl)cc2)C1)[C@H]1CC[C@@H](C)CC1 [Example 1, N-((3S,5S)-1-((3S,4R)-1-(tert-butyl)-4-(4-chlorophenyl)pyrrolidine-3-carbonyl)-5-(morpholine-4-carbonyl)pyrrolidin-3-yl)-N-((1s,4R)-4-methylcyclohexyl)isobutyramide]
stable: stability of the amorphous compound under vapour stress conditions ([1]; various solvent vapours) | stability of the amorphous compound under humidity stress conditions ([2]; controlled humidity conditions)
Amorphous: XRD ([1]; 2-Me-THF) | XRD ([1]; ACS) | XRD ([1]; Acetone) | XRD ([1]; Benzyl alcohol) | XRD ([1]; Chlorobenzene) | XRD ([1]; Chloroform) | XRD ([1]; DCM) | XRD ([1]; DME) | XRD ([1]; DMSO) | XRD ([1]; Ethanol) | XRD ([1]; Formamide) | XRD ([1]; HFIPA) | XRD ([1]; Heptane) | XRD ([1]; IPA) | XRD ([1]; MEK) | XRD ([1]; MeOH) | XRD ([1]; NMP) | XRD ([1]; Nitromethane) | XRD ([1]; Pyridine) | XRD ([1]; THE) | XRD ([1]; Water) | XRD ([2]; 23% RH stress) | XRD ([2]; 40° C./75% RH stress) | XRD ([2]; 59% RH stress) | XRD ([2]; 98% RH stress) | XRD [3]
Solid: Result ([1]; 2-Me-THF) | Result ([1]; ACS) | Result ([1]; Acetone) | Result ([1]; Benzyl alcohol) | Result ([1]; Chlorobenzene) | Result ([1]; Chloroform) | Result ([1]; DCM) | Result ([1]; DME) | Result ([1]; DMSO) | Result ([1]; Ethanol) | Result ([1]; Formamide) | Result ([1]; HFIPA) | Result ([1]; Heptane) | Result ([1]; IPA) | Result ([1]; MEK) | Result ([1]; MeOH) | Result ([1]; NMP) | Result ([1]; Nitromethane) | Result ([1]; Pyridine) | Result ([1]; THE) | Result ([1]; Water) | Result ([2]; 23% RH stress) | Result ([2]; 40° C./75% RH stress) | Result ([2]; 59% RH stress) | Result ([2]; 75% RH stress) | Result ([2]; 98% RH stress)
